Measurements as given in patent publication US12617814B2, “Neuroactive steroids and methods of use thereof” (Sage Therapeutics, LLC, priority 2013, dated 2026).

Key:
[1] = target: T1, NMDA receptor (GRIN1/GRIN2A subunits) (Homo sapiens, UniProt Q05586+Q12879); assay: NMDA potentiation, whole-cell patch clamp of HEK cells expressing NMDA receptor; format: cell-based; details: for activation at 0.1 µM: HEK293, 0.1 uM compound, read-out: NMDA 1a2A (%) Potentiation 0.1 uM; for activation at 0.1 µM / activation at 1 µM / NMDA 1a2A (%) Potentiation 0.1 uM / NMDA 1a2A (%) Potentiation 1 uM: HEK cells, 30 μM NMDA and 5.0 μM Glycine; for activation at 1 µM: HEK293, 1 uM compound, read-out: NMDA 1a2A (%) Potentiation 1 uM; for NMDA 1a2A (%) Potentiation 0.1 uM: 0.1 uM compound; for NMDA 1a2A (%) Potentiation 1 uM: 1 uM compound
T1 construct: expressed in transfected cells
Description: NMDA potentiation was assessed using either whole cell patch clamp of mammalian cells which expressed NMDA receptors, or using two-electrode voltage clamp (TEVC) of Xenopus Laevis oocytes expressing NMDA receptors.
NMDA/Glycine peak and steady-state currents were recorded from stably transfected cells expressing the NMDA receptor and the modulatory effects of the test items on these currents were investigated.
Cells were stably transfected with human GRIN1 (variant NR1-3). These cells were transiently transfected (Lipofectamine™) with GRIN2A cDNA and CD8 (pLeu) antigene cDNA. About 24-72 hours following transfection 1 μl Dynabeads M-45 CD8 was added to identify successfully transfected cells (Jurman et al., Biotechniques (1994) 17:876-881). Cells were passaged to a confluence of 50-80%. Cells were seeded onto Poly-L-Lysine coated cover slips covered with culture complete medium in a 35 mm culture dish. Confluent clusters of cells are electrically coupled (Pritchett et al., Science (1988), 242:1306-8). Because responses in distant cells are not adequately voltage clamped and because of uncertainties about the extent of coupling (Verdoorn et al., Neuron (1990), 4:919-28), cells were cultivated at a density that enables single cells (without visible connections to neighboring cells) to be measured. Cells were incubated at 37° C. in a humidified atmosphere with 5% CO2 (rel. humidity about 95%). The cells were continuously maintained in and passaged in sterile culture flasks containing a 1:1 mixture of Dulbecco's modified eagle medium and nutrient mixture F-12 (D-MEM/F-12 1×, liquid, with L-Glutamine) supplemented with 9% fetal bovine serum and 0.9% Penicillin/Streptomycin solution. The complete medium was supplemented with 3.0 μg/ml Puromycin.
Whole cell currents were measured with HEKA EPC-10 amplifiers using PatchMaster software. Cell culture dishes for recordings were placed on the dish holder of the microscope and continuously perfused (1 ml/min) with “bath solution” (NaCl 137 mM, KCl 4 mM, CaCl2 1.8 mM, MgCl2 1 mM, HEPES 10 mM, D-Glucose 10 mM, pH (NaOH) 7.4). All solutions applied to cells including the pipette solution were maintained at room temperature (19° C.-30° C.). After formation of a Gigaohm seal between the patch electrodes and transfected individual HEK 293 cells (pipette resistance range: 2.5 MΩ-6.0 MΩ; seal resistance range: >1 GQ) the cell membrane across the pipette tip was ruptured to assure electrical access to the cell interior (whole-cell patch-configuration). At this point the bath solution is switched to “NMDA bath solution” (NaCl 137 mM, KCl 4 mM, CaCl2 2.8 mM, HEPES 10 mM, D-Glucose 10 mM, Cremophore 0.02%, pH (NaOH) 7.4). NMDA inward currents were measured upon application of 30 μM NMDA (and 5.0 μM Glycine) to patch-clamped cells (2 applications) for 5 s. The cells were voltage clamped at a holding potential of −80 mV. For the analysis of test articles, NMDA receptors were stimulated by 30 μM NMDA and 5.0 μM Glycine after sequential pre-incubation of increasing concentrations of the test article. Pre-incubation duration was 30 s. Stimulation duration was 5 s Test articles were dissolved in DMSO to form stock solutions of 0.1 mM and 1 mM. Test articles were diluted to 0.1 μM and 1 μM in “NMDA bath solution”. Both concentrations of test articles were tested on each cell. The same concentration was applied at least three times or until the steady state current amplitude was reached. Every day one cell was tested with 50 μM PREGS (positive control) using the same application protocol to test whether cells were successfully transfected with NMDA receptors.

NMDA (NR1a/NR2A) = NMDA (NR1a/NR2A) (Homo sapiens, UniProt Q05586+Q12879); details: cited from earlier work
Chain of NMDA (NR1a/NR2A) (Q12879 23-1464, other chains not shown): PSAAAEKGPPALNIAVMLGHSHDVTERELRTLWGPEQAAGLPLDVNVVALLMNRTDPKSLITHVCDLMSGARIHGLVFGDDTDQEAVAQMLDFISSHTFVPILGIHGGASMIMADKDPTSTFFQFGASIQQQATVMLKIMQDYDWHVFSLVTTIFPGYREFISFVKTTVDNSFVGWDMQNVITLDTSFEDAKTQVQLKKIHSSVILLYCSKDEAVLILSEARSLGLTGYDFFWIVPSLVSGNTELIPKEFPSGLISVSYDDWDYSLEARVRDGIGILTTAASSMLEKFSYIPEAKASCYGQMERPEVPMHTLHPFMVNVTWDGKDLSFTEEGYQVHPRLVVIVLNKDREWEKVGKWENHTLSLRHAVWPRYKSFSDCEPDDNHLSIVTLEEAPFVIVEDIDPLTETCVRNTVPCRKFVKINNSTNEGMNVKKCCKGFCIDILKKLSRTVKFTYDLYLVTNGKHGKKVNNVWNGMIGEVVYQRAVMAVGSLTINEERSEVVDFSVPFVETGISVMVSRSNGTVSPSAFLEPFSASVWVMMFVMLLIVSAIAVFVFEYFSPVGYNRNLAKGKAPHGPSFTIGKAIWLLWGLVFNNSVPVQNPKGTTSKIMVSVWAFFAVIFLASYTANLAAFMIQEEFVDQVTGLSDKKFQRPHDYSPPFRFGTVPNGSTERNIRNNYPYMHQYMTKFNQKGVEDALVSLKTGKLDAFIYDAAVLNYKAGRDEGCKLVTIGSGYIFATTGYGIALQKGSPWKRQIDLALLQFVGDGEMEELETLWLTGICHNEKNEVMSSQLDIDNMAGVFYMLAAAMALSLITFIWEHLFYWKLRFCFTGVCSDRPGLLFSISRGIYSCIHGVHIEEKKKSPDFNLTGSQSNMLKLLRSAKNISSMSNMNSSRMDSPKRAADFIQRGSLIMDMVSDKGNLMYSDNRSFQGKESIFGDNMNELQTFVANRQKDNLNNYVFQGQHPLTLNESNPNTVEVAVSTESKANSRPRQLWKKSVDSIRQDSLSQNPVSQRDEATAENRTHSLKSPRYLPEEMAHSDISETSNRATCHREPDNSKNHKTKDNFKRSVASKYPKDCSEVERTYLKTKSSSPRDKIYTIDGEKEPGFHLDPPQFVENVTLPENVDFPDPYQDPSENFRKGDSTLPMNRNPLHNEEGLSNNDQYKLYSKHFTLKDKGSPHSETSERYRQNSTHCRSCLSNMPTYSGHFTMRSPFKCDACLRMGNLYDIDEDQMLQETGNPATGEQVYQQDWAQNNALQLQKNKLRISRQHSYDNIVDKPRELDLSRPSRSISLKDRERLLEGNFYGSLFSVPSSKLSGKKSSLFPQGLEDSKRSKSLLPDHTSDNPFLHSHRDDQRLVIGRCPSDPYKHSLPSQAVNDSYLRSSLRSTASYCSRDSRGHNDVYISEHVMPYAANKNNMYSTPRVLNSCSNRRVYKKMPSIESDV

T1 sequence (Q12879 23-1464, other chains not shown): as above

SMILES	activation at 0.1 µM [1]	activation at 1 µM [1]	other results
C[C@H](CCC(C)(C)O)[C@H]1CC[C@H]2[C@@H]3CC=C4C[C@@H](O)CC[C@]4(C)[C@H]3CC[C@]12C (stereo in doubt) [Org-1, reference compound]	10 to 75%	150 to 250%	modulation of NMDA (NR1a/NR2A) (NMDA (NR1a/NR2A)): positive modulator; selectivity NMDA over GABAA (NMDA (NR1a/NR2A)): selectively modulate NMDA over GABAA
CC(O)CCC(C)[C@H]1CC[C@H]2[C@@H]3CC=C4C[C@@H](O)CC[C@]4(C)[C@H]3CC[C@]12C (some centres unmarked) [Comparison compound 1, reference compound]	10 to 75%	75 to 150%	–
CC(CCC(C)(C)O)[C@H]1CC[C@H]2[C@@H]3CC=C4C[C@@](C)(O)CC[C@]4(C)[C@H]3CC[C@]12C (some centres unmarked) [Comparison compound 2, reference compound]	75 to 150%	> 250%	–
CC(CCC(C)(C)O)[C@H]1CC[C@H]2[C@@H]3CC[C@H]4C[C@@](C)(O)CC[C@]4(C)[C@H]3CC[C@]12C (some centres unmarked) [Comparison compound 3, reference compound]	75 to 150%	150 to 250%	–
CC(C)(O)CCC[C@H]1CC[C@H]2[C@@H]3CC[C@H]4C[C@@](C)(O)CC[C@]4(C)[C@H]3CC[C@]12C [Comparison compound 4, reference compound]	10 to 75%	75 to 150%	loss of NMDA potentiation compared to Comparison Compound 3 ([1]; measured at 0.1 μM concentration): five fold
CCC(C)(O)CC[C@@H](C)[C@H]1CC[C@H]2[C@@H]3CC[C@H]4C[C@@](C)(O)CC[C@]4(C)[C@H]3CC[C@]12C (some centres unmarked) [Comparison compound 5, reference compound]	–	–	NMDA 1a2A (%) Potentiation 0.1 uM [1]: A (“A” indicates 10-75% potentiation); NMDA 1a2A (%) Potentiation 1 uM [1]: A (“A” indicates 10-75% potentiation)
C[C@H](CCC(O)C(F)(F)F)[C@H]1CC[C@H]2[C@@H]3CC=C4C[C@@](C)(O)CC[C@]4(C)[C@H]3CC[C@]12C (some centres unmarked) [Compound 1-11]	150 to 250%	150 to 250%	–
C[C@H](CCC(O)C(F)(F)F)[C@H]1CC[C@H]2[C@@H]3CC[C@H]4C[C@@](C)(O)CC[C@]4(C)[C@H]3CC[C@]12C (some centres unmarked) [Compound 1-12]	10 to 75%	75 to 150%	–
C[C@H](CC[C@H](O)C(F)(F)F)[C@H]1CC[C@H]2[C@@H]3CC=C4C[C@@](C)(O)CC[C@]4(C)[C@H]3CC[C@]12C [Compound 1-15]	75 to 150%	150 to 250%	–
C[C@H](CC[C@@H](O)C(F)(F)F)[C@H]1CC[C@H]2[C@@H]3CC=C4C[C@@](C)(O)CC[C@]4(C)[C@H]3CC[C@]12C [Compound 1-17]	150 to 250%	150 to 250%	–
CCC(C)(O)CC[C@@H](C)[C@H]1CC[C@H]2[C@@H]3CC=C4C[C@@](C)(O)CC[C@]4(C)[C@H]3CC[C@]12C (some centres unmarked) [Compound 4-6]	150 to 250%	150 to 250%	–
CCC(C)(O)CC[C@@H](C)[C@H]1CC[C@H]2[C@@H]3CC[C@H]4C[C@@](C)(O)CC[C@]4(C)[C@H]3CC[C@]12C (some centres unmarked) [Compound 4-7]	–	–	NMDA 1a2A (%) Potentiation 0.1 uM [1]: B (“B” indicates potentiation of >75% to 150%); NMDA 1a2A (%) Potentiation 1 uM [1]: C (“C” indicates potentiation of >150 to 250%)
CCCC(C)(O)CC[C@@H](C)[C@H]1CC[C@H]2[C@@H]3CC=C4C[C@@](C)(O)CC[C@]4(C)[C@H]3CC[C@]12C (some centres unmarked) [Compound 5-2]	75 to 150%	150 to 250%	–
CCCC(C)(O)CC[C@@H](C)[C@H]1CC[C@H]2[C@@H]3CC[C@H]4C[C@@](C)(O)CC[C@]4(C)[C@H]3CC[C@]12C (some centres unmarked) [Compound 5-3]	10 to 75%	75 to 150%	–
C=CCC(C)(O)CC[C@@H](C)[C@H]1CC[C@H]2[C@@H]3CC=C4C[C@@](C)(O)CC[C@]4(C)[C@H]3CC[C@]12C (some centres unmarked) [Compound 6-2]	75 to 150%	150 to 250%	–
CCCCC(C)(O)CC[C@@H](C)[C@H]1CC[C@H]2[C@@H]3CC=C4C[C@@](C)(O)CC[C@]4(C)[C@H]3CC[C@]12C (some centres unmarked) [Compound 7-2]	10 to 75%	75 to 150%	–
CC(C)C(C)(O)CC[C@@H](C)[C@H]1CC[C@H]2[C@@H]3CC=C4C[C@@](C)(O)CC[C@]4(C)[C@H]3CC[C@]12C (some centres unmarked) [Compound 8-2]	75 to 150%	150 to 250%	–
CC(C)C(C)(O)CC[C@@H](C)[C@H]1CC[C@H]2[C@@H]3CC[C@H]4C[C@@](C)(O)CC[C@]4(C)[C@H]3CC[C@]12C (some centres unmarked) [Compound 8-3]	75 to 150%	> 250%	–
C[C@H](CCC(C)(O)C1CC1)[C@H]1CC[C@H]2[C@@H]3CC=C4C[C@@](C)(O)CC[C@]4(C)[C@H]3CC[C@]12C (some centres unmarked) [Compound 9-2]	150 to 250%	150 to 250%	–
